Patent US20240150356A1, “Pyrimidine amide compounds and use thereof” (ALPHALA CO., LTD., priority 2019, published 2024)
Where two headings read alike, the source gives them in different places.

Tests used:
Type in all cases: cell-based
[1] = test system: NCI-H460 (human lung cancer cell line); assay: In vitro MTS cell viability assay (NCI-60 methodology), NCI-H460; conditions: NCI-H460 cells, read-out: NCI-H460 LC50
Method in brief: (§1)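 NCI-60 style: compound added 24 h post-plating at five 2-fold dilutions plus DMSO control, then 2 days' incubation, MTS read-out. Time-zero plate gives Tz; LC50 is the concentration where [(Ti−Tz)/Tz]×100=−50.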

[2] = test system: Hep3B cells (hepatocellular carcinoma cell line); assay: In vitro MTS cell viability assay (NCI-60 methodology), Hep3B; conditions: Homo sapiens, 48 h, 2 days drug incubation, 50% reduction vs time zero, read-out: Hep3B LC50
Method in brief: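 Following NCI-60 method, MTS viability of Hep3B measured 24 h after plating (time zero) and after a further 2-day exposure to five concentrations (2-fold series). LC50 defined where [(Ti−Tz)/Tz]×100 = −50.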

[3] = test system: SW480 (colon adenocarcinoma cell line); assay: In vitro MTS cell viability assay (NCI-60 methodology), SW480; conditions: Homo sapiens, SW480 cells, read-out: SW480 LC50
Method in brief: as §1

| Structure (SMILES) | CC50 [1] [nM] | LC50 ([2]; Table 6, MTS) [nM] | CC50 [3] [nM] | LC50 ([2]; Table 5, MTS) [nM] | LC50 ([2]; Table 9, MTS) [nM] | LC50 ([2]; Table 10, MTS) [nM] |
| --- | --- | --- | --- | --- | --- | --- |
| O=C(Nc1nc(-c2ccc3c(c2)OCO3)nc2c1cnn2-c1cccc(Cl)c1)c1ccc([N+](=O)[O-])s1 [Compound 6-39, N-(6-(benzo[d][1,3]dioxol-5-yl)-1-(3-chlorophenyl)-1H-pyrazolo[3,4-d]pyrimidin-4-yl)-5-nitrothiophene-2-carboxamide] | 1070 | 270 | 3180 |  |  |  |
| O=C(Nc1nc(-c2cccc(Cl)c2)nc2c1cnn2-c1ccccc1)c1ccc([N+](=O)[O-])s1 [Compound 5-29, N-(6-(3-chlorophenyl)-1-phenyl-1H-pyrazolo[3,4-d]pyrimidin-4-yl)-5-nitrothiophene-2-carboxamide] | 950 |  | 660 | 210 |  |  |
| O=C(Nc1nc(-c2ccc(F)nc2)nc2c1cnn2-c1ccc(F)cc1)c1ccc([N+](=O)[O-])s1 [Compound 6-116, N-(1-(4-fluorophenyl)-6-(6-fluoropyridin-3-yl)-1H-pyrazolo[3,4-d]pyrimidin-4-yl)-5-nitrothiophene-2-carboxamide] | 500 | 90 | 550 |  |  |  |
| COC(=O)c1ccc(-c2nc(NC(=O)c3ccc([N+](=O)[O-])s3)c3cnn(C4CCN(C(=O)OC(C)(C)C)CC4)c3n2)cc1 [Compound 9-3, tert-butyl 4-(6-(4-(methoxycarbonyl)phenyl)-4-(5-nitrothiophene-2-carboxamido)-1H-pyrazolo[3,4-d]pyrmidin-1-yl)piperidine-1-carboxylate] | 1220 |  | 2720 |  | 420 |  |
| Cc1ccc(-n2ncc3c(NC(=O)c4ccc([N+](=O)[O-])s4)nc(-c4ccc(F)nc4)nc32)cc1 [Compound 6-5, N-(6-(6-fluoropyridin-3-yl)-1-(p-tolyl)-1H-pyrazolo[3,4-d]pyrimidin-4-yl)-5-nitrothiophene-2-carboxamide] | 910 | 110 | 650 |  |  |  |
| O=C(Nc1nc(-c2ccc(F)nc2)nc2c1cnn2-c1cccc(F)c1)c1ccc([N+](=O)[O-])s1 [Compound 6-90, N-(1-(3-fluorophenyl)-6-(6-fluoropyridin-3-yl)-1H-pyrazolo[3,4-d]pyrimidin-4-yl)-5-nitrothiophene-2-carboxamide] | 560 | 140 | 540 |  |  |  |
| O=C(Nc1nc(N2CCC[C@H]2COc2ccccc2)nc2c1cnn2-c1ccc(F)cc1)c1ccc([N+](=O)[O-])s1 [Compound 6-106, (S)—N-(1-(4-fluorophenyl)-6-(2-(phenoxymethyl)pyrrolidin-1-yl)-1H-pyrazolo[3,4-d]pyrimidin-4-yl)-5-nitrothiophene-2-carboxamide] | 1650 | 430 | 500 |  |  |  |
| CC(C)(C)c1ccc(-n2ncc3c(NC(=O)c4ccc([N+](=O)[O-])s4)nc(-n4cccn4)nc32)cc1 [Compound 6-75, N-(1-(4-tert-butyl)phenyl)-6-(4-(1H-pyrazol-1-yl)-1H-pyrazolo[3,4-d]pyrimidin-4-yl)-5-nitrothiophene-2-carboxamide] | 1280 | 240 | 5480 |  |  |  |
| O=C(Nc1nc(-c2ccc(Cl)nc2)nc2c1cnn2C1CCCCC1)c1ccc([N+](=O)[O-])s1 [Compound 10-18, N-(6-(6-chloropyridin-3-yl)-1-cyclohexyl-1H-pyrazolo[3,4-d]pyrimidin-4-yl)-5-nitrothiophene-2-carboxamide] | 850 |  | 950 |  |  | 680 |
| O=C(Nc1nc(-c2ccc(Cl)cc2F)nc2c1cnn2-c1ccccc1)c1ccc([N+](=O)[O-])s1 [Compound 5-47, N-(6-(4-chloro-2-fluorophenyl)-1-phenyl-1H-pyrazolo[3,4-d]pyrimidin-4-yl)-5-nitrothiophene-2-carboxamide] | 290 |  | 610 | 130 |  |  |
| O=C(Nc1nc(-c2ccc(Cl)nc2)nc2c1cnn2C1CCC(F)(F)CC1)c1ccc([N+](=O)[O-])s1 [Compound 10-57, N-(6-(6-chloropyridin-3-yl)-1-(4,4-difluorocyclohexyl)-TH-pyrazolo[3,4-d]pyrimidin-4-yl)-5-nitrothiophene-2-carboxamide] | 1300 |  | 1340 |  |  | 570 |
| O=C(Nc1nc(-c2ccc(F)cc2)nc2c1cnn2C1CCCCC1)c1ccc([N+](=O)[O-])s1 [Compound 10-13, N-(1-cyclohexyl-6-(4-fluorophenyl)-1H-pyrazolo[3,4-d]pyrimidin-4-yl)-5-nitrothiophene-2-carboxamide] | 2620 |  | 1730 |  |  | 700 |
| O=C(Nc1nc(-c2ccc(N3CCCCC3)nc2)nc2c1cnn2-c1ccccc1)c1ccc([N+](=O)[O-])s1 [Compound 5-42, 5-nitro-N-(1-phenyl-6-(6-(piperidin-1-yl)pyridin-3-yl)-1H-pyrazolo[3,4-d]pyrimidin-4-yl)thiophene-2-carboxamide] | 1670 |  | 890 | 510 |  |  |
| O=C(Nc1nc(-c2cccnc2)nc2c1cnn2-c1ccc(F)cc1)c1ccc([N+](=O)[O-])s1 [Compound 6-111, N-(1-(4-fluorophenyl)-6-(pyridin-3-yl)-1H-pyrazolo[3,4-d]pyrimidin-4-yl)-5-nitrothiophene-2-carboxamide] | 1870 | 90 | > 4000 |  |  |  |
